Source: patent US12662473B2, “Inhibitors for programmed cell necrosis and preparation method therefor and use thereof” (SHANGHAI INSTITUTE OF ORGANIC CHEMISTRY, CHINESE ACADEMY OF …, priority 2019, dated 2026)
Read-outs that look alike come from different tables or passages of the source.

Key:
L929 cells = experiment: TNF-induced programmed cell necrosis inhibition, Cell Titer-Glo viability; type: cell-based, mouse; conditions: Mus musculus, read-out: EC50 inhibitory activity on programmed cell necrosis
Method in brief: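 L929 mouse fibroblasts were pretreated 1 h at 37 °C with compound plus Smac (500 nM solution added), then stimulated with TNFα (500 ng/mL solution added) for 14 h. Viability was read as ATP by CellTiter-Glo luminescence, with unstimulated DMSO wells set to 100%, and EC50 values were calculated.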

RIPK1(1-330) protein = target: T1, RIPK1(1-330) protein (Homo sapiens, UniProt Q13546); experiment: Protein thermal shift assay; type: binding; set-up: RIPK1(1-330) protein (final concentration 2 μM) was expressed and purified in insect cells; made in house; host or cells: insect cells; conditions: FIG. 3
T1 sequence (Q13546 1-330): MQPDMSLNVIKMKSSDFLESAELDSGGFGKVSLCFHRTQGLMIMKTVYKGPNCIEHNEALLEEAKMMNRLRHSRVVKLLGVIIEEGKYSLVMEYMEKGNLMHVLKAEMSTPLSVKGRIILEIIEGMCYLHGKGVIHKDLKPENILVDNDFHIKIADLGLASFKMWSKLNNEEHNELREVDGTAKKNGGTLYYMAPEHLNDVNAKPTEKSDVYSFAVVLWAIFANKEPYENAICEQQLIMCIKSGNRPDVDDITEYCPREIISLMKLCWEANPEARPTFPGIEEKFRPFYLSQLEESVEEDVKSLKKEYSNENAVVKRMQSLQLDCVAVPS
Procedure: The interaction between RIPK1 protein and compound was analyzed by studying the thermal stability of the protein. Small molecule ligands can stabilize proteins by binding to proteins, increasing the Tm value of proteins. The interaction between the compound and the protein can be indirectly judged by testing the effect of the compound on the thermal stability of the protein. RIPK1 protein contains kinase domain (1-312), intermediate domain (312-582) and death domain (582-669), and RIPK1 (1-330) protein purified in vitro contains all kinase domains.
The adopted biological test protocol was to test the effect of compound QY-1-98 on the thermal stability of RIPK1 (1-330) protein using protein thermal shift assay, using the known RIPK1 inhibitor Nec-1s as a control.
RIPK1(1-330) protein (final concentration 2 μM) was expressed and purified in insect cells, mixed with the corresponding concentration of compound and SYRO Orange Protein gel stain dye (final concentration 5×). 10 μL of final volume was added to 384-well plate, and at least 3 duplicate wells were set in each group. After the samples were placed for 2 hours at room temperature, the 7500 Fast Real-Time PCR System was applied to test the thermal stability of the protein by […]. The temperature was set at 25° C.-95° C., 0.015° C./s. The datas were analyzed using protein thermal shift software.

**Q.** Which results are given for Cc1noc([C@@H]2CCCN2C(=O)C(C)(C)Oc2ccc(Cl)cc2)n1 [QY-1-98]?
**A.** EC50 (L929 cells; L929, 14 h, L929 cells (mouse), TNFa + SM164): 1290 nM; EC50 (L929 cells; L929, L929 cells (mouse), TNFa): 213 nM; thermal stability of RIPK1 (1-330) protein (RIPK1(1-330) protein): can significantly improve the thermal stability
